Measurements as given in US20090047682A1, “Method of detecting and predicting bronchodilatory response to beta agonist” (COUNCIL OF SCIENTIFIC AND INDUSTRIAL RESEARCH, priority 2004, published 2009).

Test system: β2AR
Conditions: Indian population; χ2=11.28, df=2, p=0.004

## CC(C)(C)NCC(O)c1ccc(O)c(CO)c1 (stereo not shown) [salbutamol]
  association of responder status to treatment with genotype at β2AR gene: strongly associated
